Reference: patent publication US9902713B2, “Neuroprotective compounds and use thereof” (BOARD OF REGENTS OF THE UNIVERSITY OF TEXAS SYSTEM, priority 2013, dated 2018)

Legend:
newborn neurons = experiment: Survival of BrdU-prelabeled newborn neurons (FIG. 4); format: in vivo, mice; details: BrdU bolus, then twice-daily IP 7 days
Method: (§1) Adult mice were administered a bolus of BrdU (150 mg/kg) to label newborn neurons, and 24 hours later, twice-daily IP treatment was begun with vehicle or compound for 7 days. At the end of the 7 days, the number of surviving BrdU-labeled neurons was quantified. Importantly, under the conditions of this experiment, newborn neurons were labeled prior to exposure to drug, so any increase in number of neurons can be attributed to neuroprotective activity rather than proliferative effects. […] Data shown are mean+/−SEM. P values are shown for comparison to VEH treated group, and were obtained by one-way ANOVA with Dunnet's post-hoc test, using GraphPad Prism 5.0. Asterisks indicate p<0.01 (*) or p<0.0001 (***).
as §1, with “Specifically, in FIG. 4, adult” for “Adult”, “Asterisks indicate p<0.01 (*) or p<0.0001 (***).” left out

[1] = test system: cultured cortical neurons; experiment: 6-OHDA toxicity in cultured neurons (MTT); format: cell-based; details: 10 μM compound
Method: (§2) A rat model of Parkinson's disease, incuded by 6-hydroxydopamine (6-OHDA) was used to test various compounds As shown in FIGS. 33A-33D, P7C3-S243 protects cultured hippocampal and cortical neurons from 6-OHDA toxicity. […] (FIG. 33B) The average number of hippocampal neurons in the 10 μM P7C3-S243 treatment group was not different from the average number of hippocampal neurons treated with medium alone or with DMSO+Ascorbic acid (one-way ANOVA). […] The average number of cortical neurons in the 10 μM P7C3-S243 treatment group was not different from the average number of cortical neurons treated with medium alone or with DMSO+Ascorbic acid (one-way ANOVA). Experiments were performed two independent times, with 8-12 replicates of each sample both times.

[2] = test system: cultured hippocampal neurons; experiment: 6-OHDA toxicity in cultured neurons (MTT); format: cell-based; details: 10 μM compound
Method: as §2

[3] = Pharmacokinetic analysis, plasma and brain levels
[4] = test system: dopaminergic neurons within the substantia nigra; details: previously reported; cited from earlier work
[5] = test system: motor neurons in the spinal cord; details: previously reported; cited from earlier work
[6] = test system: cerebral cortical neurons; details: previously reported; cited from earlier work
H2122 = experiment: Toxicity towards human cancer cell line; format: cell-based; details: NCI-H2122
3A4 = 3A4 (Homo sapiens, UniProt P08684); experiment: Cytochrome P450 inhibition; format: in vitro ADME
[7] = target: (Homo sapiens, UniProt P10635); experiment: Cytochrome P450 inhibition; format: in vitro ADME; details: 3D6
2C8 = 2C8 (Homo sapiens, UniProt P10632); experiment: Cytochrome P450 inhibition; format: in vitro ADME
2B6 = 2B6 (Homo sapiens, UniProt P20813); experiment: Cytochrome P450 inhibition; format: in vitro ADME
μ-opioid receptor = μ-opioid receptor (Homo sapiens, UniProt P35372); experiment: Ligand displacement (Psychoactive Drug Screening Program); format: binding
[8] = test system: hippocampal CA1 neurons, myelin and mitochondria; experiment: Toluidine blue staining and TEM of hippocampus after blast-injury; format: in vivo, mice
Method: To further examine hippocampal structural pathology, we turned to ultrathin ([…]) section histology using toluidine blue staining, as well as transmission electron microscopy (TEM) (FIG. 31). […] In blast-injured animals, however, we observed accumulation of chromatolytic and pyknotic neurons in the CA1 stratum pyramidale, accompanied by decreased dendritic extensions in the stratum radiatum, indicating general ongoing pathologic processes associated with neurodegeneration and consistent with our electrophysiologic data in FIG. 17.
The stratum radiatum is where CA3 Schaeffer collateral axons synapse with dendrites of CA1 pyramidal cells. This was the circuit we investigated electrophysiologically (FIG. 17), and we next turned to TEM to further characterize blast-injury induced axonal degeneration. […] These axons contained intact and healthy-appearing mitochondria.
Toluidine blue staining and transmission electron microscopy (TEM). Mice were transcardially perfused with Karnovsky's fixative solution (2% formaldehyde, 2.5% glutaraldehyde, 0.2M sodium cacodylate buffer, 1 mM CaCl2, 2 mM MgCl2, and 42.8 mM NaCl, pH 7.4) two weeks after either sham- or blast-Injury and with or without specified compound treatment. Harvested brains were incubated in Karnovsky's overnight at 4° C. Whole brains were cut in the horizontal plane (100 μm) using a vibratome (Leica 1500). Sections that contained the hippocampus were selected, washed with 0.1M sodium cacodylate buffer and then post fixed with 1% osmium fixative for 1 hr. After washing in 0.1M sodium cacodylate buffer, sections were dehydrated in a series of ethanol (50%, 75%, 95% and 100% ethanol) followed by embedding in EPON resin overnight at 65° C. For toluidine blue staining, semithin sections (1 μm) were cut with an ultramicrotome (Leica UC6) and stained with toluidine blue. Pictures were taken using an upright microscope (Zeiss Axio Imager.M2) with a color camera (AxioCam ICc5). For TEM, ultrathin sections (60 nm) adjacent to the semithin sections were cut with an ultramicrotome, loaded onto a Formvar 200-mesh Ni grid, and counterstained with uranyl acetate and lead citrate. Specimens were examined using a JEOL JEM 1230 electron microscope with a Gatan UltraScan 1000 2 k×2 k CCD camera. See also FIG. 31.

CYP2C19 = CYP2C19 (Homo sapiens, UniProt P33261); experiment: Cytochrome P450 inhibition
[9] = blast-injured, oral 0.3 mg/kg/day

Sequence of 3A4 (P08684 whole entry): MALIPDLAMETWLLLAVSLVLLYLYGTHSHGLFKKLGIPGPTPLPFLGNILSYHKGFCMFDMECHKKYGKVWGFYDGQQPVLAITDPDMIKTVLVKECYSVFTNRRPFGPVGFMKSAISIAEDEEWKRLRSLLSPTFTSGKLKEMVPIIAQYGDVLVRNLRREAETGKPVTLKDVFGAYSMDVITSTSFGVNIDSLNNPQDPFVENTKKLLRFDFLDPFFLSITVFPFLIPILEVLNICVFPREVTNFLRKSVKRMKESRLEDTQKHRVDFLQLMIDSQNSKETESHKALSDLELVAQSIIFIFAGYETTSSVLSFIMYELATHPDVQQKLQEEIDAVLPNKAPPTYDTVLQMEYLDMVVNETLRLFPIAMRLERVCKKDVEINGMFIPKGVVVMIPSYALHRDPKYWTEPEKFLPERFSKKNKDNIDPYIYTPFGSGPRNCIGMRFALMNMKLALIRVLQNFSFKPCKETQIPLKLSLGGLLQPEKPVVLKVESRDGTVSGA
Sequence of 2B6 (P20813 whole entry): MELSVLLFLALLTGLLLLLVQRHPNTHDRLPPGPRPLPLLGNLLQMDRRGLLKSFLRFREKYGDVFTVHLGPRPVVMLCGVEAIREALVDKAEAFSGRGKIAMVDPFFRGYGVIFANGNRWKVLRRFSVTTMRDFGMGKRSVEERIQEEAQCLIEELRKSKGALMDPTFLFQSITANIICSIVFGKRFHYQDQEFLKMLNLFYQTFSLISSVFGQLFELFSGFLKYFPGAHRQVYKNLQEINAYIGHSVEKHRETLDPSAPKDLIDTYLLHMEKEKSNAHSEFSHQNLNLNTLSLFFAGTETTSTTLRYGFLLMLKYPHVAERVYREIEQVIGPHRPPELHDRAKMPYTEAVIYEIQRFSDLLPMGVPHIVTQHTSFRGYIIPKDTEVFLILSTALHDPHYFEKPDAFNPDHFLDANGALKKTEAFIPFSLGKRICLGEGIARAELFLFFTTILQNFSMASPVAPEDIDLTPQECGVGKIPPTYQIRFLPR
Sequence of (Homo sapiens, UniProt P10635) (P10635 whole entry): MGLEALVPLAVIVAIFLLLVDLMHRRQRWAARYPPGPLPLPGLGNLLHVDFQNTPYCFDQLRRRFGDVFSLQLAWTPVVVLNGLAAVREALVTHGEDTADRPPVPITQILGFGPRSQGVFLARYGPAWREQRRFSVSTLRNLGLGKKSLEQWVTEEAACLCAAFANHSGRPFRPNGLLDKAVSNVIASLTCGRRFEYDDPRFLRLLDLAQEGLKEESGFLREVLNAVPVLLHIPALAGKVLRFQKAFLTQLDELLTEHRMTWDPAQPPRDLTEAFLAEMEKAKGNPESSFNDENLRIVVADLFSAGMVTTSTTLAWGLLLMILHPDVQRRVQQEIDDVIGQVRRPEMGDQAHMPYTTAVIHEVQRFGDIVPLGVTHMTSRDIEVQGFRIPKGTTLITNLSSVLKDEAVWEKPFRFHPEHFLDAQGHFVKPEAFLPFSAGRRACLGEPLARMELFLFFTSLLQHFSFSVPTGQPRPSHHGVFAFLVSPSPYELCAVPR
Sequence of CYP2C19 (P33261 whole entry): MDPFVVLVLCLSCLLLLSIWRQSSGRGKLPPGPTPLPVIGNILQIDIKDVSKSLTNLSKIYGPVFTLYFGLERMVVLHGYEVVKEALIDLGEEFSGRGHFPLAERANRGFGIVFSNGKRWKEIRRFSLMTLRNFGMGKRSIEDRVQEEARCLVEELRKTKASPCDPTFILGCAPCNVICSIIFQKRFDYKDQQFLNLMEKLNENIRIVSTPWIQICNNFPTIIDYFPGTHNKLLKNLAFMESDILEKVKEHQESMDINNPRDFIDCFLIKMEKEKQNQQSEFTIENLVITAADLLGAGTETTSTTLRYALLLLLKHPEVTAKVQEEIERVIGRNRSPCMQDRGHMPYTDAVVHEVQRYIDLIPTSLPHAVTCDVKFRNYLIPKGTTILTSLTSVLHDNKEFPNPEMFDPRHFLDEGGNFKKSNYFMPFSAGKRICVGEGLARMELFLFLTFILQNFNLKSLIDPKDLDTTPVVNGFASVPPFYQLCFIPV
Sequence of μ-opioid receptor (P35372 whole entry, species assumed): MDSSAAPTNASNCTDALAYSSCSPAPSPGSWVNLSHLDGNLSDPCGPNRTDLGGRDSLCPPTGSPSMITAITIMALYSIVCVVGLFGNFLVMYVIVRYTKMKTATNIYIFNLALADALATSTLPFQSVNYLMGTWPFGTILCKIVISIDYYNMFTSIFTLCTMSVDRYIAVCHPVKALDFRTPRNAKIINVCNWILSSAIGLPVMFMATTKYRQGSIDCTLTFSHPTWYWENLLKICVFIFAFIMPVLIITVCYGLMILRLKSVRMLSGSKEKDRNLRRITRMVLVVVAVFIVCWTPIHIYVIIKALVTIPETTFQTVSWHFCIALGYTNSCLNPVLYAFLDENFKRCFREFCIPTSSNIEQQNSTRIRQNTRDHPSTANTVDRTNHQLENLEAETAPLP
Sequence of 2C8 (P10632 whole entry): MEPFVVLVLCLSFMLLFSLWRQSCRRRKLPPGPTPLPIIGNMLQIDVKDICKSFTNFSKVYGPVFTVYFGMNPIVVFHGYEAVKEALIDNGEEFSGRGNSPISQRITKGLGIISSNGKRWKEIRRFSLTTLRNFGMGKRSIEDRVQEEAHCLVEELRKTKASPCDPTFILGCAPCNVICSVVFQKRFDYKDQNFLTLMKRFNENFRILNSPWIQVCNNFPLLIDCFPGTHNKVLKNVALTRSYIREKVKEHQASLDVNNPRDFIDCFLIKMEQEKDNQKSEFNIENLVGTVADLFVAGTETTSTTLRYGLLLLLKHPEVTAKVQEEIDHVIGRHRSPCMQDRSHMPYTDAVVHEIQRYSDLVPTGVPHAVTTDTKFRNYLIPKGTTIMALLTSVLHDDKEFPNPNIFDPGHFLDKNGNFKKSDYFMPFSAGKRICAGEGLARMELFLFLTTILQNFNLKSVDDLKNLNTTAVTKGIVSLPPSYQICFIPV

COc1cccc(NCC(F)Cn2c3ccc(Br)cc3c3cc(Br)ccc32)n1 (racemic) [P7C3-S243, N-(3-(3,6-dibromo-9H-carbazol-9-yl)-2-fluoropropyl)-6-methoxypyridin-2-amine]
protection down to (dose) (newborn neurons): 1 mg/kg/day | average number of neurons vs medium or DMSO+Ascorbic acid [1]: not different | protection (MTT) ([1]; 50 μM and 75 μM 6-OHDA): significant protection | average number of neurons vs medium or DMSO+Ascorbic acid [2]: not different | protection (MTT) ([2]; 50 μM 6-OHDA, 24 hrs): significant protection | % F (brain) ([3]; IP 10 mg/kg): 28% | % F (plasma) ([3]; IP 10 mg/kg): 66% | AUC(brain) ([3]; IP 10 mg/kg): 189 ± 35 µg·min/g | T1/2 ([3]; IP 10 mg/kg): >24 h | % F (brain) ([3]; IP 20 mg/kg): 48% | AUC(brain) ([3]; IP 20 mg/kg): 319 ± 68 µg·min/g | T1/2 ([3]; IP 20 mg/kg): 15 h | AUC(brain) ([3]; IV 10 mg/kg): 671 ± 14 µg·min/g | T1/2 ([3]; IV 10 mg/kg): 7.4 h | AUC(brain) ([3]; PO 20 mg/kg): 388 ± 29 µg·min/g | T1/2 ([3]; PO 20 mg/kg): 9.6 h | metabolic stability in vivo ([3]; all routes of administration): metabolically stable | brain levels ([3]; following IP dosing): dose-proportional increase

COc1cccc(NCC(F)Cn2c3ccc(Br)cc3c3cc(Br)ccc32)c1 (stereo not drawn) [P7C3-A20, N-(3-(3,6-dibromo-9H-carbazol-9-yl)-2-fluoropropyl)-3-methoxyaniline]
protection of substantia nigra neurons from MPTP (earlier report) [4]: protect neurons in the substantia nigra | motor neuron cell death in the spinal cord [5]: minimize motor neuron cell death | protection of cerebral cortical neurons [6]: protect rat cerebral cortical neurons

COc1cccc(NCC(F)Cn2c3ccc(Br)cc3c3cc(Br)ccc32)n1 (single isomer, unassigned; (-)) [(−)-P7C3-S243, (−)-N-(3-(3,6-dibromo-9H-carbazol-9-yl)-2-fluoropropyl)-6-methoxypyridin-2-amine]
IC50 (H2122): > 10 µM | sensitivity of cytochrome P450 (3A4): insensitive | sensitivity of cytochrome P450 [7]: insensitive | sensitivity of cytochrome P450 (2C8): insensitive | sensitivity of cytochrome P450 (2B6): insensitive | IC50 (μ-opioid receptor): 8.2 µM | CA1 histology (toluidine blue) [8, 9]: these same pathologic features were present | axons and neuronal mitochondria (TEM) [8, 9]: degenerating axons with characteristic unraveling of the myelin sheath | axons and neuronal mitochondria (TEM) ([8]; blast-injured, oral 3 mg/kg/d): partial resolution of pathological signs | CA1 histology (toluidine blue) ([8]; blast-injured, oral 3 mg/kg/day): partially preserve dendritic extension | CA1 histology (toluidine blue) ([8]; blast-injured, oral 30 mg/kg/d): fully preserved all structural aspects | axons and neuronal mitochondria (TEM) ([8]; blast-injured, oral 30 mg/kg/d): full protection | CA1 histology (toluidine blue) ([8]; sham-injured, oral 30 mg/kg/d): did not change | axons and neuronal mitochondria (TEM) ([8]; sham-injury, oral 30 mg/kg/d): normally myelinated axons | IC50 (CYP2C19): 1.9 µM
